From ChEMBL document CHEMBL5726394, “Therapeutic compounds and compositions” (2019)

Target: Isocitrate dehydrogenase [NADP], mitochondrial (Homo sapiens, UniProt P48735, R140Q)
Assay: IDH2 Enzymatic Assay: Compounds were assayed for IDH2 R140Q inhibitory activity through a cofactor depletion assay. […] The reaction was terminated by the addition of a second enzyme, diaphorase, and a corresponding substrate, resazurin. Diaphorase reduces resazurin to the highly fluorescent resorufin with the concomitant oxidation of NADPH to NADP, both halting the IDH2 reaction by depleting the available cofactor pool and facilitating quantitation of the amount of cofactor remaining after a specific time period through quantitative production of an easily detected fluorophore.Specifically, into each of 12 wells of a 384-well plate, 1 μl of compound dilution series was placed, followed by the addition of 40 μl of buffer (50 mM potassium phosphate, pH 7.5; 150 mM NaCl; 10 mM MgCl2, 10% glycerol, 0.05% bovine serum albumin, 2 mM beta-mercaptoethanol) containing 1.25 μg/ml IDH2 R140Q. The compound was then incubated for one hour at room temperature with the enzyme; before starting the IDH2 reaction with the addition of 10 μl of substrate mix containing 50 μM NADPH and 6.3 mM α-KG in the buffer described above. After a further one hour of incubation at room temperature, the reaction was halted and the remaining NADPH measured through conversion of resazurin to resorufin by the addition of 25 μl Stop Mix (36 μg/ml diaphorase enzyme and 60 μM resazurin; in buffer). […]

Isocitrate dehydrogenase [NADP], mitochondrial, sequence (P48735 40-452 R140Q limits assumed): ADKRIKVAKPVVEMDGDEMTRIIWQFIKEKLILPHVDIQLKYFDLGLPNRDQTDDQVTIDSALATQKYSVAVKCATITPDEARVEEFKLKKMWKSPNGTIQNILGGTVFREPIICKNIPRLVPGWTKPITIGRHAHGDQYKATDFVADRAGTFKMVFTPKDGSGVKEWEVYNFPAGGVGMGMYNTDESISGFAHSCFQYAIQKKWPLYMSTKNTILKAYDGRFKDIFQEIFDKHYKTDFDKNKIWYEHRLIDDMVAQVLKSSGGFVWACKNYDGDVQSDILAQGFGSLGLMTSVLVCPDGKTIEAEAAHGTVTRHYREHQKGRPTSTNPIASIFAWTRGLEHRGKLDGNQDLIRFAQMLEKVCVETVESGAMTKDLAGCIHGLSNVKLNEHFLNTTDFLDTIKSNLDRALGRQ

SMILES | IC50
CCSc1ccc(S(=O)(=O)NCC(F)(F)F)cc1NC(=O)Nc1cccc(C(F)(F)F)c1 | < 0.1 µM
O=C(Nc1cccc(C(F)(F)F)c1)Nc1cc(S(=O)(=O)Nc2ccccc2)ccc1-c1cccs1 | 0.1 to 1 µM
